The values that follow are results of earlier work, collected in patent publication US20260165989A1 (Société des Produits Nestlé S.A., priority 2024, published 2026).

For the data set the following is noted: counter ion (base) for salt screening.

SMILES strings stand for the structures.

Consider `C[N+](C)(C)CC(=O)O` [Betaine], for which the “pKa(s)*” value is recorded as 12.2.
